Source: ChEMBL document CHEMBL1201862, “PubChem BioAssay data set” (2004)
Calls of active or inactive are those of the source. Rule as the data show it, for most assays here: actives have a measured EC50 and inactives only a lower limit.

Assays:
[1] = target: T1, Protein Tat (Human immunodeficiency virus type 1 group M subtype B (isolate HXB2)(HIV-1), UniProt P04608); assay type: functional;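 also: tat binding to TAR RNA read out by fluorescence polarization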
T1 sequence (P04608 whole entry): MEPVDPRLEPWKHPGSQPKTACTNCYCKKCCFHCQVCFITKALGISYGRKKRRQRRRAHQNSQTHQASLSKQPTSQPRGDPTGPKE

[2] = Luminescence Cell-Based Dose Response to Identify Activators of 5'UTR Stem-Loop Driven Prion Protein mRNA Translation in H4-C Neuroglioblastoma Cells. [Related pubchem assays: 1829 (Project Summary), 1814 (Primary HTS)]; assay type: functional
[3] = Luminescence Cell-Based Dose Confirmation HTS to Identify Activators of 5'UTR Stem-Loop Driven Alpha-Synuclein mRNA Translation in H4 Neuroglioblastoma Cells. [Related pubchem assays: 1829 (Project Summary), 1814 (Primary HTS)]; assay type: functional
[4] = Luminescence Cell-Based Dose Response HTS to Identify Activators of Luciferase Translation or Activity in H4 […] Cells. [Related pubchem assays: 1829 (Project Summary), 1814 (Primary HTS)]; assay type: functional
[5] = system: H4; test: Luminescence Cell-Based Dose Response HTS to Identify Activators of 5'UTR Stem-Loop Driven Prion Protein mRNA Translation in H4 Neuroglioblastoma Cells. [Related pubchem assays: 1829 (Project Summary), 1814 (Primary HTS)]; assay type: functional; conditions: Homo sapiens
[6] = Luminescence Cell-Based Dose Response to Identify Activators of Luciferase Translation or Activity in H4-C Neuroglioblastoma Cells. [Related pubchem assays: 1829 (Project Summary), 1814 (Primary HTS)]; assay type: functional
[7] = inhibitors of intracellular T. cruzi replication, confirmation, NIH3T3 host cells, beta-gal luminescence (AID 2044); assay type: functional, cell-based;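 also: intracellular parasites grown in NIH/3T3 mouse fibroblasts as host cells; luminescent beta-galactosidase reporter signal from transgenic T. cruzi replicating inside host cells; inhibitors lower the luminescence signal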
[8] = cytotoxicity toward NIH3T3 fibroblasts, dose response, counter-screen, cell-based, ATP luminescence, mouse fibroblasts (AID 2010); assay type: functional;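 also: cells exposed to compound for about 90 hours before reading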
[9] = Luminescence Cell-Based Dose Confirmation to Identify Activators of 5'UTR Stem-Loop Driven Alpha-Synuclein mRNA Translation in H4 Neuroglioblastoma Cells. [Related pubchem assays: 1829 (Project Summary), 1814 (Primary HTS)]; assay type: functional
[10] = inhibitors of Vif binding to APOBEC3G peptide, primary screen, biochemical, TR-FRET, GST-Vif 1-94, biotin-A3G peptide, dose response retest (AID 1117319); assay type: functional;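 also: TR-FRET signal of purified GST-Vif binding a biotinylated A3G peptide; inhibitors lower the FRET signal by blocking Vif and A3G binding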

| Structure (SMILES) | IC50 [1] | EC50 [2] | EC50 [3] | EC50 [4] | EC50 [5] | EC50 [6] | EC50 [7] | EC50 [8] | EC50 [9] | IC50 [10] |
| --- | --- | --- | --- | --- | --- | --- | --- | --- | --- | --- |
| O=C(Nc1ccccc1C(=O)NC(Cc1c[nH]c2ccccc12)C(=O)O)c1ccco1 (stereo unspecified) | > 100 µM (active) |  |  |  |  |  |  |  |  |  |
| CCC(=O)Nc1ccc(C(=O)OCc2ccccc2Cl)cc1 |  | 8.13 µM (active) | < 0.1 µM (active) | 37.7 µM (active) | 11.7 µM (active) | 0.614 µM (active) | 0.815 µM (active) | > 60 µM (not active) | 0.976 µM (active) |  |
| Cc1ccn2cc(CNS(=O)(=O)c3ccc(Cl)s3)nc2c1 | > 100 µM (active) |  |  |  |  |  |  |  |  | > 100 µM (active) |
